Laboratory results reported in ChEMBL document CHEMBL1147732, “Novel tacrine-melatonin hybrids as dual-acting drugs for Alzheimer disease, with improved acetylcholinesterase inhibitory and antioxidant properties” (J Med Chem, 2006).

What was measured:
[1] = molecular target: Butyrylcholinesterase (Equus caballus, UniProt Q9N1N9)
Description: Inhibition of BuChE from horse serum

[2] = molecular target: T1, Acetylcholinesterase (Bos taurus, UniProt P23795)
T1 sequence (P23795 whole entry): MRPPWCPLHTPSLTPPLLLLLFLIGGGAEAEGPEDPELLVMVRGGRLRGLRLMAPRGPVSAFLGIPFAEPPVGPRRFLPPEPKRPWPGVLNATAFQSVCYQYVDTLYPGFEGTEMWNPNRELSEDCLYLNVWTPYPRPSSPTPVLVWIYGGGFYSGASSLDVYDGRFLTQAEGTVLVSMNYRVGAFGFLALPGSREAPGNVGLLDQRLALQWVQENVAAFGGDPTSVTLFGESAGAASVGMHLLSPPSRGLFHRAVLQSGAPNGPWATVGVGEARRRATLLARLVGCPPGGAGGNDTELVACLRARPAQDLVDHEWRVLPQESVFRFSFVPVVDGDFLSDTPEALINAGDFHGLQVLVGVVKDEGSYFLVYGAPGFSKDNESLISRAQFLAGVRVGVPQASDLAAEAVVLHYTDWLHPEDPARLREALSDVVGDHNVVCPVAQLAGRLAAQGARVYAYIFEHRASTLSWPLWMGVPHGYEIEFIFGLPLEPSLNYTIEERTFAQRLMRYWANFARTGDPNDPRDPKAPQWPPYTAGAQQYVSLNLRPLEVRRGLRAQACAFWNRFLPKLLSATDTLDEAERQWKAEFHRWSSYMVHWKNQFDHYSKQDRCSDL
Description: Inhibition of AchE from bovine erythrocytes

[3] = in vitro; settings: pig, PAMPA
Description: Permeability in BBB by PAMPA using a lipid extract of porcine brain

[4] = molecular target: Cholinesterase (Homo sapiens, UniProt P06276)
Chain of Cholinesterase (P06276 whole entry): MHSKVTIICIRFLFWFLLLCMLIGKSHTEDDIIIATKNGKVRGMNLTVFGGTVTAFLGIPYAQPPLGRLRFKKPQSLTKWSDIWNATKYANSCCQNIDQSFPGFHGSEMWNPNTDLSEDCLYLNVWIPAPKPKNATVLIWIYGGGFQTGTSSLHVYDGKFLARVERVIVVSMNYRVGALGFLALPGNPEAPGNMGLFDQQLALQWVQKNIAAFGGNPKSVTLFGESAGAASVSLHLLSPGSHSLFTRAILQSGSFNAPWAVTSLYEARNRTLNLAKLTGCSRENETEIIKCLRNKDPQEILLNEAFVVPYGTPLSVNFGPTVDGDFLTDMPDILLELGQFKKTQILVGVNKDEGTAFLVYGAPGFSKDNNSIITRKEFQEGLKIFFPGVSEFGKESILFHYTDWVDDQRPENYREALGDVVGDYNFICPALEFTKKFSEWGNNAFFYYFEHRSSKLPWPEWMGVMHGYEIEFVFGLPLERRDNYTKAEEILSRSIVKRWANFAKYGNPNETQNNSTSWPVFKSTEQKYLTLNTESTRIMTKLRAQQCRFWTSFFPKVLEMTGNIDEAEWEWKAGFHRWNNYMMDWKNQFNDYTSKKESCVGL
Description: Inhibition of human BuChE

[5] = molecular target: Acetylcholinesterase (Homo sapiens, UniProt P22303)
Chain of Acetylcholinesterase (Homo sapiens, UniProt P22303) (P22303 whole entry): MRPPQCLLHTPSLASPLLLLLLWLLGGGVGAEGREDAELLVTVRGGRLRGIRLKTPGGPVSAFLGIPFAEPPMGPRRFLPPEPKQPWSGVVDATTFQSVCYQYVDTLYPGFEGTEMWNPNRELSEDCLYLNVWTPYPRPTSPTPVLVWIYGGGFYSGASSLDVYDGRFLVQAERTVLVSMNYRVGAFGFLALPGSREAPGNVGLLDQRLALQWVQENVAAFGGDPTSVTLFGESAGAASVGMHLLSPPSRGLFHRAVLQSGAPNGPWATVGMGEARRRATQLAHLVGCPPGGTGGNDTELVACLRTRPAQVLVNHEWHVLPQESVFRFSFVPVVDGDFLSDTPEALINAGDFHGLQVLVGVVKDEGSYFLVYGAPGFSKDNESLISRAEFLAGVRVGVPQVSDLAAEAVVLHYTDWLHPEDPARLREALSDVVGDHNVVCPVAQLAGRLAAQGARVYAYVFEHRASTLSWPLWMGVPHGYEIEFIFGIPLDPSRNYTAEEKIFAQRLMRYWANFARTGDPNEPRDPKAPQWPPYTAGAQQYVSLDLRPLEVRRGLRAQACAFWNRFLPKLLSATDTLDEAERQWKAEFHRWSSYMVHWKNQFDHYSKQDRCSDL

Chain of Butyrylcholinesterase (Q9N1N9 whole entry): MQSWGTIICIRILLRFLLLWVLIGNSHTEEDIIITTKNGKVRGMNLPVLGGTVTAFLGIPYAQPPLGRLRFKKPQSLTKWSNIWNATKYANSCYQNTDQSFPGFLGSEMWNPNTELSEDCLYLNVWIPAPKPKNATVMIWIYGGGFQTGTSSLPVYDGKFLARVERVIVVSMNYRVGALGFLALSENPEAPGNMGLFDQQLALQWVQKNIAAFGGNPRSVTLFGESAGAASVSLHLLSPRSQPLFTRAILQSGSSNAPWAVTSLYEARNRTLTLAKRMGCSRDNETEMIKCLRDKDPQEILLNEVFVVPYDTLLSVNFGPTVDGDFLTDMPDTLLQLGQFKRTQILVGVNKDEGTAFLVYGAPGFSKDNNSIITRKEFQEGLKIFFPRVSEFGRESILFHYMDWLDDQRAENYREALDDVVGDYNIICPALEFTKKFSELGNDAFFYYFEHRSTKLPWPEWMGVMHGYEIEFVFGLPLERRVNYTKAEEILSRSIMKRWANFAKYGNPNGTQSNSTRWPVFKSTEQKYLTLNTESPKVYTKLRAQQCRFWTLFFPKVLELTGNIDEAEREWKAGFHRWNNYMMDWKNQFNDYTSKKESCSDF

Structure (SMILES) | IC50 [1] | IC50 [2] | Papp [3] | IC50 [4] | IC50 [5]
COc1ccc2[nH]cc(CCNC(=O)CCCCCNc3c4c(nc5ccccc35)CCCC4)c2c1 | 2 nM | 9 nM | 77 nm/s | – | –
O=C(CCCCCNc1c2c(nc3cc(Cl)cc(Cl)c13)CCCC2)NCCc1c[nH]c2ccccc12 | 8.2 nM | 3.5 nM | 84 nm/s | – | –
O=C(CCCCCCNc1c2c(nc3cc(Cl)cc(Cl)c13)CCCC2)NCCc1c[nH]c2ccccc12 | 85 nM | 2 nM | – | 7.8 nM | 0.008 nM
O=C(CCCCCCNc1c2c(nc3ccccc13)CCCC2)NCCc1c[nH]c2ccccc12 | 0.95 nM | 1 nM | 92 nm/s | 6.8 nM | 0.5 nM
COc1ccc2[nH]cc(CCNC(=O)CCCCCNc3c4c(nc5cc(Cl)ccc35)CCCC4)c2c1 | 55 nM | 12 nM | – | – | –
O=C(CCCCCNc1c2c(nc3ccccc13)CCCC2)NCCc1c[nH]c2ccccc12 | 12 nM | 4 nM | 110 nm/s | – | –
COc1ccc2[nH]cc(CCNC(=O)CCCCCNc3c4c(nc5cccc(Cl)c35)CCCC4)c2c1 | 22 nM | 25 nM | 89 nm/s | – | –
O=C(CCCCCNc1c2c(nc3cccc(Cl)c13)CCCC2)NCCc1c[nH]c2ccccc12 | 15 nM | 65 nM | 52 nm/s | 23 nM | 0.87 nM
O=C(CCCCCNc1c2c(nc3ccccc13)CCCC2)NCCc1c[nH]c2ccc(O)cc12 | 3.5 nM | 35 nM | 20 nm/s | 1 nM | 0.45 nM
COc1ccc2[nH]cc(CCNC(=O)CCCCCCNc3c4c(nc5cc(Cl)cc(Cl)c35)CCCC4)c2c1 | 100 nM | 5 nM | – | 25 nM | 0.04 nM
O=C(CCCCCCNc1c2c(nc3cc(Cl)ccc13)CCCC2)NCCc1c[nH]c2ccccc12 | 8.1 nM | 0.2 nM | – | 35 nM | 0.1 nM
COc1ccc2[nH]cc(CCNC(=O)CCCCCCNc3c4c(nc5ccccc35)CCCC4)c2c1 | 2.5 nM | 2.3 nM | 86 nm/s | 3 nM | 0.65 nM
O=C(CCCCCNc1c2c(nc3cc(Cl)ccc13)CCCC2)NCCc1c[nH]c2ccccc12 | 5.2 nM | 2 nM | 77 nm/s | – | –
COc1ccc2[nH]cc(CCNC(C)=O)c2c1 [MELATONIN] | > 100 nM | > 100 nM | – | – | –
